Earlier results on one compound are cited in patent US11390612B2, “Polymorphic forms of Afatinib free base and Afatinib dimaleate” (FRESENIUS KABI ONCOLOGY LIMITED, priority 2015, dated 2022).

For this data set the following is noted: as observed in WO 2013/052157.

Regarding `CN(C)C/C=C/C(=O)Nc1cc2c(Nc3ccc(F)c(Cl)c3)ncnc2cc1O[C@H]1CCOC1.O=C(O)/C=C\C(=O)O.O=C(O)/C=C\C(=O)O` [form A of Afatinib dimaleate], the hygroscopicity entry was “hygroscopic in nature”. The “polymorphic conversion after absorbing moisture” value (after absorbing moisture) was “converts to form E of Afatinib dimaleate”.
